Source: patent US12616684B2, “Pulmonary fibrosis medicine containing pyrazole derivative” (priority 2020, dated 2026)
Counter-ions that a name gives are not always drawn. Like-named read-outs stand apart in the source and are kept apart here.

Legend:
[1] = tested on: C57BL/6J mice with bleomycin-induced pulmonary fibrosis; assay: Mouse model with bleomycin-induced pulmonary fibrosis; assay type: in vivo; conditions: for improved (modified) Ashcroft score: oral once a day for 28 days, Compound 1 60 mg/kg, nintedanib 100 mg/kg, BLM group 5.5±0.8, mean and standard deviation, FIG. 9
Description: For the mouse model with bleomycin-induced pulmonary fibrosis, C57BL/6J male mice aged 5 weeks and before and after body weight of 20 g were used. C57BL/6J mice were anesthetized by intraperitoneally injection of pentobarbital (40 mg/kg), the skin of the anterior neck or midline was incised, the trachea was exposed with a self-retaining retractor, and then a micro syringe was inserted from the occipital side to the lungs to slowly administer bleomycin (2 mg/kg) while checking the state of respiration. Immediately after injection, the skin of the incised anterior neck or midline was sutured, and then they were bred in a sterile animal room at constant temperature (22-26° C.) and constant humidity (55-60%). By this method, remarkable fibrosis occurred in the lungs, usually after 3 weeks of treatment. Experimental animals were 7 animals in each group, and the experiment was conducted by dividing them into the following groups: a control group (Control) orally administered with distilled water, a group (BLM) with bleomycin-induced pulmonary fibrosis, an experimental group as a positive control group (BLM+Nintedanib) orally administered with 100 mg/kg of nintedanib daily 3 weeks after administration of bleomycin, and an experimental group (BLM+Compound 1) orally administered with 60 mg/kg of Compound 1 daily 3 weeks after administration of bleomycin. Nintedanib and Compound 1 were orally administered once a day for 28 days. On the day after the last administration of nintedanib or compound 1, each animal was anesthetized, and then was bled by cardiac puncture and sacrificed. Lung tissues were enucleated from all animals for histopathological examination. The enucleated lung tissue was fixed in 10% neutral buffered formalin (NBF). The fixed lung tissue was embedded in paraffin and sliced to a thickness of 4 μm to prepare a tissue slide. The tissue slides were subjected to hematoxylin & eosin (H&E) staining, which is cell staining, and Masson's trichrome (MT) staining to confirm fibrosis. Histopathological examination of the prepared tissue slides was confirmed using an optical microscope (Carl Zeiss, Oberkochen, Germany). The severity of fibrosis was assessed using the modified Ashcroft scale, which is a semi-quantitative histopathological scoring. For immunohistochemical staining, the tissue slides prepared above were de-paraffinized, and then rabbit anti-α-smooth muscle actin (SMA) antibody or rabbit anti-collagen type I antibody was used as a primary antibody. And, Vectastatin ABC kit (Vector Laboratories, Inc, Burlingame, CA) was used to confirm the expression of the antigen reacted with each antibody. […] When reading the staining result, if the cytoplasm is colored reddish-brown in whole or in part, it is considered that there is an immune reaction, and thus, it is read as positive. From the experimental results, the mean and standard deviation were obtained using the SPSS ver. 22.0 statistical program (SPSS Inc., Chicago, IL, USA), and the significance of the difference between the experimental groups was verified at p<0.05 level by the student t-test.

[2] = tested on: severe acute respiratory syndrome coronavirus 2 (SARS-CoV2); assay: Antiviral activity against SARS-CoV2 in Calu-3 cells, real-time qRT-PCR; assay type: cell-based; conditions: for IC50: Severe acute respiratory syndrome coronavirus 2, SARS-CoV2 in Calu-3 cells, read-out: IC50 (50% inhibition concentration), antiviral efficacy
[3] = tested on: normal human lung fibroblasts (NHLFs); assay: PMA stimulation-induced reactive oxygen species generation in normal human lung fibroblasts; assay type: cell-based; conditions: FIG. 1
Description: In order to confirm the effect of the compounds of the synthetic examples on the generation of reactive oxygen species from lung fibroblasts, the generation of reactive oxygen species was induced through PMA stimulation in normal human lung fibroblasts (NHLFs, Lonza), and the inhibitory effect of Compound 1 on the generation of reactive oxygen species was observed under this condition. Each cell was suspended in a culture medium containing 10% FBS, seeded in a 96-well plate, and cultured for 24 hours under conditions of 5% CO2 and 37° C. After pre-treating Compound 1 for 30 minutes to 1 hour, TGF-β1 or phorbol 12-myristate 13-acetate (PMA) stimulation was applied to each well including cells and drugs.

IL-1β = assay: LPS-induced IL-1β expression in normal human lung fibroblasts, RT-PCR; assay type: cell-based; conditions: NHLFs, pre-treated 30 minutes, LPS 6 hours, FIG. 4
[4] = Toxicity to Calu-3 human lung epithelial cells; assay type: cell-based; conditions: Calu-3 cells, read-out: CC50 (50% cytotoxic concentration)
Description: In order to analyze the antiviral activity of the compounds of the synthetic examples, real-time qRT-PCR (quantitative RT-PCR) was perfumed using severe acute respiratory syndrome coronavirus 2 (SARS-CoV2) and Calu-3 cells, which are human lung epithelial cells. Human lung epithelial cells (Calu-3) were cultured in Dulbecco's Modified Eagle Medium (DMEM) at 37° C. under 5% CO2. The concentration of Compound 1 was 15, 12.5, 6.25, 3.125, 1.563, 0.781, 0.391, 0.195, 0.098, 0.049, 0.024, 0.012 μM. Antiviral efficacy (IC50; 50% inhibition concentration) and toxicity to the cells (CC50; 50% cytotoxic concentration) according to drug concentration were measured at 24 hours and 48 hours after treatment on the cells by concentration, and are shown in Table 1 and FIG. 10.

[5] = tested on: normal human lung fibroblasts (NHLFs); assay: TGF-β1-induced αSMA and collagen type I expression (myofibroblast differentiation), immunocytochemistry; assay type: cell-based; conditions: 10 ng/ml TGF-β1 72 hours, 2 mM Compound 1 pre-treated 1 hour
Description: In order to analyze the effect of Compound 1 on the differentiation of lung fibroblasts into myofibroblasts, the inhibitory effect of Compound 1 on the increase in the expression of TGF-β1-induced α-smooth muscle actin (αSMA) and collagen type I (collagen I) in normal human lung fibroblasts (NHLFs, Lonza) was observed. NHLF cells were suspended in culture medium (FGM-2 Bulletkit media, Lonza) and inoculated at a concentration of 1×10^4 cells/well on a 4-well chamber slide (Nunc). After 24 hours of culture in a CO2 incubator, the medium was replaced with a serum-free medium and further cultured for 12 hours. Thereafter, vehicle and 2 mM Compound 1 were pre-treated in the corresponding wells for 1 hour, and then 10 ng/ml of TGF-β1 was treated in each well except for the negative control (vehicle group) for 72 hours. Confirmation of the expression of αSMA and collagen I in the prepared cells was performed through immunocytochemistry as follows. Cells were fixed in 4% paraformaldehyde for 10 minutes and permeated using 0.1% Triton X-100, and primary antibody (anti-αSMA Ab, 1:200; anti-collagen I Ab, 1:500, reacted for 3 hours at room temperature) and secondary antibody (ALEXA™-594 conjugated Ab, 1:1000, reacted for 1 hour at room temperature) treatment process was sequentially performed, and then the expression of αSMA and collagen I was observed using a fluorescence microscope. […]

[6] = 60 mg/kg oral once a day for 28 days, FIG. 5

COC(=O)c1ccc2c(c1)NC(=O)/C2=C(\Nc1ccc(N(C)C(=O)CN2CCN(C)CC2)cc1)c1ccccc1 [nintedanib, reference compound]
improved (modified) Ashcroft score [1]: 5.2±0.45

CCCc1c(-c2ccccc2)nn(-c2ccccn2)c1O [Compound 1, 3-phenyl-4-propyl-1-(pyridin-2-yl)-1H-pyrazol-5-ol hydrochloride]
SI ([2]; CC50/IC50, 24 hours): 13.80 | SI ([2]; CC50/IC50, 48 hours): 98.50 | IC50 ([2]; 24 hours after treatment): 31.5 µM | IC50 ([2]; 48 hours after treatment): 1.67 µM | generation of PMA stimulation-induced reactive oxygen species [3]: inhibited in a concentration-dependent manner | LPS-induced IL-1β expression (IL-1β): effectively inhibited in a concentration-dependent manner | CC50 at 24 h ([4]; 24 hours after treatment): 435 µM | CC50 at 48 h ([4]; 48 hours after treatment): 164 µM | increase in the expression of αSMA ([5]; FIG. 2): remarkably inhibited | increase in the expression of collagen I ([5]; FIG. 3): remarkably inhibited | deformation of the lung structure (H&E staining) [1, 6]: reduced | hypertrophic epithelial cells (H&E staining) [1, 6]: decreased | site of abnormal tissue deposition (H&E staining) [1, 6]: reduced | degree of infiltration of inflammatory cells into the alveolus and bronchiole (H&E staining) ([1]; 60 mg/kg oral once a day for 28 days, compared with BLM and BLM+Nintedanib groups, FIG. 5): significantly lower than that of the experimental group and the positive control group | size of the fibrosis area and deposition of collagen due to fibrosis (Masson's trichrome staining) ([1]; 60 mg/kg oral once a day for 28 days, compared with BLM and BLM+Nintedanib groups, FIG. 6): remarkably reduced | expression of α-SMA in lung tissue (immunohistochemical staining) ([1]; 60 mg/kg oral once a day for 28 days, compared with BLM and BLM+Nintedanib groups, FIG. 7): reduced | expression of collagen type I (collagen I) in lung tissue (immunohistochemical staining) ([1]; 60 mg/kg oral once a day for 28 days, compared with BLM and BLM+Nintedanib groups, FIG. 8): remarkably reduced | improved (modified) Ashcroft score [1]: 4.0±1.1
